Values quoted from earlier work in patent publication US11260065B2, “Storage-stable ready-to-use injectable formulations of thiotepa” (RK Pharma Solutions LLC, priority 2018, dated 2022).

What was measured:
[1] = acid medium
[2] = water and organic solvents

## S=P(N1CC1)(N1CC1)N1CC1 [Thiotepa, tris(1-aziridinyl)phosphine sulfide]
[1]
  Stability: unstable in acid medium
[2]
  Solubility: soluble in water and organic solvents
